In US10344002B2, “Compositions and methods for treating metabolic disorders” (NuSirt Sciences, Inc., priority 2016, dated 2019):

Legend:
Type in all cases: cell-based
adiponectin = assay: Adiponectin gene expression (real-time PCR) in 3T3L1 adipocytes; settings: for adiponectin expression, fold change to control (FIG. 8): 48 hours
Method: Cell Culture: 3T3L1 adipocytes were seeded with 20,000 cells per well on 96-well tissue culture plates in DMEM containing 10% FBS and 1% penicillin-streptomycin. After reaching confluency (3 days), cells were induced to differentiate with a standard differentiation media (DM2-L1, Zen-Bio Inc., NC) for 3 days, then cells were maintained in DMEM (10% FBS, 1% penicillin-streptomycin) for another 8 days to induce lipid accumulation. Cells were then treated with indicated concentration of Compound 2 for 48 hours.
(§1) Compound 2 was dissolved in 100% DMSO to a stock concentration of 100 mM. This stock was further diluted to indicated concentrations in DMEM media.
Gene Expression: 3T3L1 adipocytes were grown and treated as described above. The medium was removed and the cells were washed with cold PBS. Cells Lysis, reverse transcription and real-time PCR was performed according to the instructions of the TaqMan® Gene Expression Cells-to-CT™ Kit manual (Life Technologies Inc, Cat #4399002). cDNA was probed with adiponectin and normalized to 18S.

3T3L1 adipocytes = assay: Fatty acid oxidation (oxygen consumption rate) in 3T3L1 adipocytes; settings: for baseline OCR, area under the curve (FIG. 10A): control approximately 6000; for palmitate induced OCR, area under the curve (FIG. 10B): control approximately 52000
[1] = tested on: acetyl-CoA carboxylase (ACC); assay: Western blot, phosphorylated/total acetyl-CoA carboxylase in C2C12 muscle cells; settings: for increase in the ratio of phosphorylated to total ACC: 24 h; for ratio of phosphorylated/total ACC (FIG. 6B): 24 hours, control approximately 1.25
Method: Cell Culture: C2C12 muscle cells were seeded with 400,000 cells per well on 6-well tissue culture plates in Dulbecco's modified eagle's medium (DMEM) containing 10% fetal bovine serum (FBS) and antibiotics (1% penicillin-streptomycin) at 37° C. in 5% CO2. After reaching confluency (24 hours), cells were induced to differentiate with DMEM containing 2% Horse Serum for 5 to 6 days until myotubes were fully formed. Cells were then treated with indicated concentration of Compound 2 for 4 and 24 hours.
as §1
Western blots: Phospho-AMPK, AMPK, Phospho-ACC, ACC antibodies were obtained from Cell Signaling (Danvers, Mass.). Sir2 antibody was obtained from MyBiosource (San Diego, Calif.). Protein levels of cell extracts were measured by BCA kit (Thermo Scientific, Pittsburgh, Pa.). For Western blot, 10-50 μg protein was resolved on 4-15% gradient polyacrylaminde gels (Criterion precast gel, Bio-Rad Laboratories, Hercules, Calif.), transferred to either PVDF or nitrocellulose membranes, incubated in blocking buffer (3% BSA or 5% non-fat dry milk in TBS) and then incubated with primary antibody (1:1000 dilution), washed and incubated with horseradish peroxidase- or fluorescence-conjugated secondary antibody (1:10000 dilution). Visualization was conducted using BioRad ChemiDoc instrumentation and software (Bio-Rad Laboratories, Hercules, Calif.) and band intensity was assessed using Image Lab 4.0 with correction for background and loading controls.

CC(C)C[C@@H]1NC(N=C(N)N)=NC1=O [Compound 2]
increase of adiponectin gene expression (adiponectin; 10 nM and 100 nM, 48 hour treatment): approximately 35%
adiponectin expression, fold change to control (FIG. 8) (adiponectin; 10 nM): approximately 1.35 fold change
adiponectin expression, fold change to control (FIG. 8) (adiponectin; 100 nM): approximately 1.4 fold change
increase of baseline OCR (3T3L1 adipocytes; 10 nM, 48 hours of treatment): 50%
increase of palmitate stimulated OCR (3T3L1 adipocytes; 10 nM, 48 hours of treatment): 43%
baseline OCR, area under the curve (FIG. 10A) (3T3L1 adipocytes; 10 nM): approximately 7900 pMoles/min
palmitate induced OCR, area under the curve (FIG. 10B) (3T3L1 adipocytes; 10 nM): approximately 78000 pMoles/min
effect on baseline and palmitate stimulated OCR (3T3L1 adipocytes; 100 nM, compared with 10 nM): smaller effect
baseline OCR, area under the curve (FIG. 10A) (3T3L1 adipocytes; 100 nM): approximately 7000 pMoles/min
palmitate induced OCR, area under the curve (FIG. 10B) (3T3L1 adipocytes; 100 nM): approximately 62000 pMoles/min
increase in the ratio of phosphorylated to total ACC ([1]; 10 nM): 46%
ratio of phosphorylated/total ACC (FIG. 6B) ([1]; 10 nM): approximately 1.8
increase in the ratio of phosphorylated to total ACC ([1]; 100 nM): 21%
ratio of phosphorylated/total ACC (FIG. 6B) ([1]; 100 nM): approximately 1.52
